From patent US20250304582A1, “Bicyclic Ureas As Kinase Inhibitors” (Incyte Corporation, priority 2024, published 2025) come the findings set out here.

The target of test [1] is T1, catalytic domain (JH1, amino acids 808-1132) of human JAK2 (Homo sapiens, UniProt O60674).
T1 construct: catalytic domain (JH1, amino acids 808-1132) of human JAK2; His (N); purchased BPS Bioscience 40450; host or cells: baculovirus expression system
The test is described as follows: JAK2 HTRF Enzyme Activity Assay. The test is classed as biochemical. Conditions: ATP (30 μM or 1 mM; not stated which for the table), 60 minutes at 25° C.; read-out: JAK2 HTRF (Ex. D). As for the experimental part: Example D. JAK2 HTRF Enzyme Activity Assay
JAK2 enzyme activity assays utilize catalytic domain (JH1, amino acids 808-1132) of human JAK2 expressed as N-terminal His-tagged protein in a baculovirus expression system (BPS Bioscience, Catalog #40450). The assays was conducted in black 384-well polystyrene plates in a final reaction volume of 20 μL. JAK2 (0.015 nM) was incubated with compounds (100 nL serially diluted in DMSO) in the presence of ATP (30 μM or 1 mM) and 500 nM Biotin-labeled EQEDEPEGDYFEWLE (SEQ ID NO.: 1) peptide (BioSource International, custom synthesis) in assay buffer (50 mM Tris, pH=7.5, 10 mM MgCl2, 0.01% Brij-35, 0.1% BSA, 1 mM EGTA, 5% Glycerol and 5 mM DTT) for 60 minutes at 25° C. The reactions were stopped by the addition of 10 μL of detection buffer (50 mM Tris, pH 7.8, 0.5 mg/mL BSA, 150 mM NaCl), supplemented with EDTA, LANCE Eu-W1024 anti-phosphotyrosine (PY20), (PerkinElmer, Catalog #AD0067) and Streptavidin SureLight APC (PerkinElmer Catalog #CR130-100), for a final concentration of 15 mM, 1.5 nM and 75 nM, respectively. HTRF signals were read after 30 minutes incubation at room temperature on a PHERAstar FS plate reader (BMG LABTECH). Data was analyzed with TDBS Xlfit and GraphPad Prism 5.0 software using a four parameter dose response curve to determine IC50 for each compound.

Test [2] deals with T2, pseudo-kinase domain (JH2, amino-acids 536-812) of human V617F mutant JAK2 (Homo sapiens, UniProt O60674, F794H/V617F/W659A/W777A).
T2 construct: JH2, amino-acids 536-812 with 3 surface mutations W659A, W777A, F794H; His (C); purchased BPS Bioscience 79498; host or cells: baculovirus expression system
T2 sequence (O60674 536-812 V617F/W659A/W777A/F794H): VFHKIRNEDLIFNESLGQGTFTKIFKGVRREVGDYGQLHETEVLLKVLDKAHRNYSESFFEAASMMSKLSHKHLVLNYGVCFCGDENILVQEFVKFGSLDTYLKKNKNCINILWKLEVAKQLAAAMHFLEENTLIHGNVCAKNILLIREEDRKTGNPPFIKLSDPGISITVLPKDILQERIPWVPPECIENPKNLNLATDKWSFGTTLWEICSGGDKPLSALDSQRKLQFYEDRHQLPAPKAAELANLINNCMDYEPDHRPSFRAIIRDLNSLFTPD
Description: JAK2 LanthaScreen JH2-V617F Binding Assay. The note with it: 50 nM Fluorescent JAK2-JH2 Tracer, 1 hour at 25° C.; read-out: JH2 BIND V617F (Ex. C). As to the method: Example C. JAK2 LanthaScreen JH2-V617F Binding Assay
(§1) JAK2 JH2-V617F binding assay utilizes pseudo-kinase domain (JH2, amino-acids 536-812 with 3 surface mutations W659A, W777A, F794H) of human V617F mutant JAK2 expressed as C-terminal His-Avi-tagged, biotinylated protein in a baculovirus expression system (BPS Bioscience, Catalog #79498). The assay was conducted in black 384-well polystyrene plates in a final reaction volume of 20 μL. JAK2 JH2-V617F (0.26 nM) was incubated with compounds (100 nL serially diluted in DMSO) in the presence of 50 nM Fluorescent JAK2-JH2 Tracer (MedChem Express Catalog #HY-102055) and 0.25 nM Streptavidin-Tb cryptate (Cisbio Part #610SATLB) in assay buffer (50 mM Tris, pH=7.5, 10 mM MgCl2, 0.01% Brij-35, 0.1% BSA, 1 mM EGTA, 5% Glycerol and 5 mM DTT). Non-specific binding was accessed in the presence of 2 mM ATP. After incubation for 1 hour at 25° C., LanthaScreen signals were read on a PHERAstar FS plate reader (BMG LABTECH). Data was analyzed with IDBS Xlfit and GraphPad Prism 5.0 software using a four parameter dose response curve to determine IC50 for each compound.

Test [3] deals with T3, catalytic domain (JH1, amino acids 826-1132) of human JAK2 (Homo sapiens, UniProt O60674).
T3 construct: catalytic domain (JH1, amino acids 826-1132) of human JAK2; FLAG (N); purchased Carna Biosciences 08-445-20N; host or cells: baculovirus expression system
T3 sequence (O60674 826-1132): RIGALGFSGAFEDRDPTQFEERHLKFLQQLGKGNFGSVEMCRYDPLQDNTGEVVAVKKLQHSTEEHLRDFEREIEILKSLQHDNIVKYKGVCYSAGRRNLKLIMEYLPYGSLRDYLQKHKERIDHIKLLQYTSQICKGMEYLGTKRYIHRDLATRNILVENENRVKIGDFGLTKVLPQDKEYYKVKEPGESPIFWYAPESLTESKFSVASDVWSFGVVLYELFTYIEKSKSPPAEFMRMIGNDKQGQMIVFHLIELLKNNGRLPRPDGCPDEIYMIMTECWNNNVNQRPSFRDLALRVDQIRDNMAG
The test is described as follows: JAK2 LanthaScreen JH1 Binding Assay. The note with it: 50 nM fluorescent JAK2-JH1 tracer, 2 hours at 25° C.; read-out: JH1 BIND (EX. A). As to the method: Example A. JAK2 LanthaScreen JH1 Binding Assay
JAK2 JH1 binding assay utilizes catalytic domain (JH1, amino acids 826-1132) of human JAK2 expressed as N-terminal FLAG-tagged, biotinylated protein in a baculovirus expression system (Carna Biosciences, Product #08-445-20N). The assay was conducted in black 384-well polystyrene plates in a final reaction volume of 20 μL. JAK2 JH1 (1.5 nM) was incubated with compounds (100 nL serially diluted in DMSO) in the presence of 50 nM fluorescent JAK2-JH1 tracer and 0.5 nM Streptavidin-Tb cryptate (Cisbio Part #610SATLB) in assay buffer (50 mM Tris, pH=7.5, 10 mM MgCl2, 0.01% Brij-35, 0.1% BSA, 1 mM EGTA, 5% Glycerol and 5 mM DTT). Non-specific binding was accessed in the presence of 2 mM ATP. After incubation for 2 hours at 25° C., LanthaScreen signals were read on a PHERAstar FS plate reader (BMG LABTECH). Data was analyzed with IDBS Xlfit and GraphPad Prism 5.0 software using a four parameter dose response curve to determine IC50 for each compound.
On the technique in general: TR-FRET usually uses a lanthanide donor and a delayed reading to cut background.

The target in test [4] is T4, pseudo-kinase domain (JH2, amino-acids 536-812) of human Wild Type JAK2 (Homo sapiens, UniProt O60674, F794H/W659A/W777A).
T4 construct: JH2, amino-acids 536-812 with 3 surface mutations W659A, W777A, F794H; His (C); purchased BPS Bioscience 79463; host or cells: baculovirus expression system
T4 sequence (O60674 536-812 W659A/W777A/F794H): as the sequence (O60674 536-812 V617F/W659A/W777A/F794H) above, with F82V counted along it
Description: JAK2 LanthaScreen JH2-WT Binding Assay. The note with it: 50 nM Fluorescent JAK2-JH2 Tracer, 1 hour at 25° C.; read-out: JH2 BIND WT (EX. B). As for the experimental part:
Example B. JAK2 LanthaScreen JH2-WT Binding Assay
as §1, with “JH2-WT” for “JH2-V617F”, “Wild Type” for “V617F mutant”, “#79463).” for “#79498).”, “JH2-WT (0.145” for “JH2-V617F (0.26”

T1 sequence (O60674 808-1132): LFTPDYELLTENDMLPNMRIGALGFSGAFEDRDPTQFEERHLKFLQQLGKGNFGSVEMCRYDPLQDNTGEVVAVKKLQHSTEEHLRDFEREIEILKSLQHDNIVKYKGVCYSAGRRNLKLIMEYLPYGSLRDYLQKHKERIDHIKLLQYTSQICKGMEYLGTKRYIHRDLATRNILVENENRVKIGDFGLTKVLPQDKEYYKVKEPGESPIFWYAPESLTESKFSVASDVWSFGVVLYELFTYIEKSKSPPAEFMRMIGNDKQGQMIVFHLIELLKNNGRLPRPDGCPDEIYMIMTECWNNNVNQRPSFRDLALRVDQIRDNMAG

Take `[2H]C([2H])([2H])n1c(=O)n([C@@H]2CC[C@@H](NC(=O)OC)C2)c2cc(Nc3cc(C(C)(O)C(F)(F)F)c4cccc(C(F)(F)F)c4n3)ncc21` (stereo partly drawn) [Example 3, Methyl ((1R,3R)-3-(3-(methyl-d3)-2-oxo-6-((4-(1,1,1-trifluoro-2-hydroxypropan-2-yl)-8-(trifluoromethyl)quinolin-2-yl)amino)-2,3-dihydro-1H-imidazo[4,5-c]pyridin-1-yl)cyclopentyl)carbamate]: the IC50 in test [1] was over 1000 nM; in test [2], at most 10 nM; in test [3], over 1000 nM; in test [4], at most 10 nM.
For `[2H]C([2H])([2H])n1c(=O)n([C@@H]2CC[C@@H](NC(=O)OC)C2)c2cc(Nc3cc(C)c4cccc(C(F)(F)F)c4n3)ncc21` [Example 4, Methyl ((1R,3R)-3-(3-(methyl-d3)-6-((4-methyl-8-(trifluoromethyl)quinolin-2-yl)amino)-2-oxo-2,3-dihydro-1H-imidazo[4,5-c]pyridin-1-yl)cyclopentyl)carbamate], the IC50 was over 1000 nM in test [1], at most 10 nM in test [2], over 1000 nM in test [3] and at most 10 nM in test [4].
For `[2H]C([2H])([2H])n1c(=O)n([C@@H]2CC[C@@H](NC(=O)OC)C2)c2cc(Nc3cc([S+](C)[O-])c4cccc(C(F)(F)F)c4n3)ncc21` (stereo partly drawn) [Example 5, Methyl ((1R,3R)-3-(3-(methyl-d3)-6-((4-(methylsulfinyl)-8-(trifluoromethyl)quinolin-2-yl)amino)-2-oxo-2,3-dihydro-1H-imidazo[4,5-c]pyridin-1-yl)cyclopentyl)carbamate], the IC50 in test [1] is over 1000 nM; in test [2], at most 10 nM; in test [3], over 1000 nM; in test [4], at most 10 nM.
For `[2H]C([2H])([2H])n1c(=O)n([C@@H]2CC[C@@H](NC(=O)OC)C2)c2cc(Nc3cc(S(C)(=O)=O)c4cccc(C(F)(F)F)c4n3)ncc21` [Example 6, Methyl ((1R,3R)-3-(3-(methyl-d3)-6-((4-(methylsulfonyl)-8-(trifluoromethyl)quinolin-2-yl)amino)-2-oxo-2,3-dihydro-1H-imidazo[4,5-c]pyridin-1-yl)cyclopentyl)carbamate], the IC50 was over 1000 nM in test [1], at most 10 nM in test [2], over 1000 nM in test [3] and at most 10 nM in test [4].
For the compound `[2H]C([2H])([2H])n1c(=O)n([C@@H]2CC[C@@H](NC(=O)OC)C2)c2cc(Nc3cc(S(C)(=N)=O)c4cccc(C(F)(F)F)c4n3)ncc21` (stereo partly drawn) [Example 7, methyl ((1R,3R)-3-(3-(methyl-d3)-6-((4-(S-methylsulfonimidoyl)-8-(trifluoromethyl)quinolin-2-yl)amino)-2-oxo-2,3-dihydro-1H-imidazo[4,5-c]pyridin-1-yl)cyclopentyl)carbamate], the IC50 in test [1] was over 1000 nM; in test [2], 10 to 100 nM; in test [3] it was over 1000 nM; in test [4] it was at most 10 nM.
For `[2H]C([2H])([2H])n1c(=O)n([C@@H]2CC[C@@H](NC(=O)OCc3ccccc3)C2)c2cc(Nc3ccc4cccc(C(F)(F)F)c4n3)ncc21` [Example 8, Benzyl ((1R,3R)-3-(3-(methyl-d3)-2-oxo-6-((8-(trifluoromethyl)quinolin-2-yl)amino)-2,3-dihydro-1H-imidazo[4,5-c]pyridin-1-yl)cyclopentyl)carbamate], the IC50 is over 1000 nM in test [1], 10 to 100 nM in test [2], over 1000 nM in test [3] and 10 to 100 nM in test [4].
`[2H]C([2H])([2H])n1c(=O)n([C@@H]2CC[C@@H](NC(=O)OC)C2)c2cc(Nc3cc(C(C)(C)O)c4cccc(C(F)(F)F)c4n3)ncc21` [Example 9, Methyl ((1R,3R)-3-(6-((4-(2-hydroxypropan-2-yl)-8-(trifluoromethyl)quinolin-2-yl)amino)-3-(methyl-d3)-2-oxo-2,3-dihydro-1H-imidazo[4,5-c]pyridin-1-yl)cyclopentyl)carbamate]: the IC50 is over 1000 nM in test [1], at most 10 nM in test [2], over 1000 nM in test [3] and at most 10 nM in test [4].
As for `[2H]C([2H])([2H])n1c(=O)n([C@@H]2CC[C@@H](NC(=O)OC)C2)c2cc(Nc3cc(C(=O)N(C)C(C)C)c4cccc(C(F)(F)F)c4n3)ncc21` [Example 10, Methyl ((1R,3R)-3-(6-((4-(isopropyl(methyl)carbamoyl)-8-(trifluoromethyl)quinolin-2-yl)amino)-3-(methyl-d3)-2-oxo-2,3-dihydro-1H-imidazo[4,5-c]pyridin-1-yl)cyclopentyl)carbamate], the IC50 in test [1] was over 1000 nM; in test [2], at most 10 nM; in test [3], over 1000 nM; in test [4] it was at most 10 nM.
Take `[2H]C([2H])([2H])n1c(=O)n([C@H]2C[C@H](NC(=O)OC)C2)c2cc(Nc3cc(C(C)(C)O)c4cccc(C(F)(F)F)c4n3)ncc21` [Example 15, Methyl ((trans)-3-(6-((4-(2-hydroxypropan-2-yl)-8-(trifluoromethyl)quinolin-2-yl)amino)-3-(methyl-d3)-2-oxo-2,3-dihydro-1H-imidazo[4,5-c]pyridin-1-yl)cyclobutyl)carbamate]: the IC50 in test [1] is 100 to 500 nM; in test [2], at most 10 nM; in test [3], 100 to 500 nM; in test [4], at most 10 nM.
